Measured values published in PubChem BioAssay AID256 (DTP/NCI, 2004).
Several values for one entry are separate records, joined by “and”; a condition that tells them apart may be missing. Equal values may be shown once. Toxic doses and inconclusive results are not listed. Rule for the calls: active = survival T/C of 150% or more; inactive = T/C below 125% in these data.

System: CD2F1 mice, L1210 leukemia ip, survival T/C
Assay: NCI In Vivo Anticancer Drug Screen. Data for tumor model L1210 Leukemia (intraperitoneal) in CD2F1 (CDF1) mice
Settings: higher = longer survival
Outline: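 Vehicle-treated tumor-bearing mice served as controls (C) for compound-treated mice (T). Reported figure is T divided by C.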

[1] = endpoint: mean survival time, dose: 100.0 mg/kg/injection, schedule: Q04DX003 (ip), vehicle: saline with Tween-80
[2] = endpoint: mean survival time, dose: 200.0 mg/kg/injection, schedule: Q04DX003 (ip), vehicle: saline with Tween-80
[3] = endpoint: mean survival time, dose: 400.0 mg/kg/injection, schedule: Q04DX003 (ip), vehicle: saline with Tween-80
[4] = endpoint: mean survival time, dose: 6.25 mg/kg/injection, schedule: Q01DX001 (ip), vehicle: saline with Tween-80
[5] = endpoint: mean survival time, dose: 12.5 mg/kg/injection, schedule: Q01DX009 (ip), vehicle: saline with Tween-80
[6] = endpoint: mean survival time, dose: 25.0 mg/kg/injection, schedule: Q01DX009 (ip), vehicle: saline with Tween-80
[7] = endpoint: mean survival time, dose: 25.0 mg/kg/injection, schedule: Q04DX003 (ip), vehicle: saline with Tween-80
[8] = endpoint: mean survival time, dose: 100.0 mg/kg/injection, schedule: Q01DX009 (ip), vehicle: saline with Tween-80
[9] = endpoint: mean survival time, dose: 200.0 mg/kg/injection, schedule: Q01DX009 (ip), vehicle: saline with Tween-80
[10] = endpoint: mean survival time, dose: 400.0 mg/kg/injection, schedule: Q01DX009 (ip), vehicle: saline with Tween-80
[11] = endpoint: mean survival time, dose: 100.0 mg/kg/injection, schedule: Q04DX003 (ip), vehicle: saline
[12] = endpoint: mean survival time, dose: 200.0 mg/kg/injection, schedule: Q04DX003 (ip), vehicle: saline
[13] = endpoint: mean survival time, dose: 100.0 mg/kg/injection, schedule: Q04DX002 (ip), vehicle: saline with Tween-80
[14] = endpoint: mean survival time, dose: 200.0 mg/kg/injection, schedule: Q04DX002 (ip), vehicle: saline with Tween-80
[15] = endpoint: mean survival time, dose: 400.0 mg/kg/injection, schedule: Q04DX002 (ip), vehicle: saline with Tween-80
[16] = endpoint: mean survival time, dose: 75.0 mg/kg/injection, schedule: Q01DX001 (ip), vehicle: saline
[17] = endpoint: mean survival time, dose: 150.0 mg/kg/injection, schedule: Q01DX001 (ip), vehicle: saline
[18] = endpoint: mean survival time, dose: 50.0 mg/kg/injection, schedule: Q04DX003 (ip), vehicle: saline with Tween-80

Measured: T/C

CC(c1ccccc1)c1ccc(O)cc1 (centres undefined)
inactive: [1] 103 % of control | [2] 93 % of control | [3] 91 % of control

COC(=O)C1OC(C)(C)OC1C(=O)OC (centres undefined)
inactive: endpoint: mean survival time, dose: 1.56 mg/kg/injection, schedule: Q01DX001 (ip), vehicle: saline with Tween-80 103 % of control | endpoint: mean survival time, dose: 3.12 mg/kg/injection, schedule: Q01DX001 (ip), vehicle: saline with Tween-80 100 % of control | [4] 95 % of control

NC(=O)c1cc2c(N)[nH]nc2nc1N
inactive: endpoint: mean survival time, dose: 6.25 mg/kg/injection, schedule: Q01DX009 (ip), vehicle: saline with Tween-80 97 % of control | endpoint: mean survival time, dose: 6.25 mg/kg/injection, schedule: Q04DX003 (ip), vehicle: saline with Tween-80 94 % of control | [5] 103 % of control | endpoint: mean survival time, dose: 12.5 mg/kg/injection, schedule: Q04DX003 (ip), vehicle: saline with Tween-80 97 % of control | [6] 92 % of control | [7] 92 % of control

CCCCC(NC(=O)C(C)NC(=O)OCc1ccccc1)C(=O)O (centres undefined)
inactive: [1] 98 % of control | [2] 101 % of control | [3] 98 % of control

O=C(O)/C=C/C(=O)NCCc1c[nH]c2ccccc12
inactive: [8] 98 % of control | [1] 93 % of control | [9] 95 % of control | [2] 95 % of control | [10] 95 % of control | [3] 95 % of control

NC(=O)Cc1ccccc1[N+](=O)[O-]
inactive: endpoint: mean survival time, dose: 50.0 mg/kg/injection, schedule: Q01DX001 (ip), vehicle: saline with Tween-80 95 % of control | endpoint: mean survival time, dose: 100.0 mg/kg/injection, schedule: Q01DX001 (ip), vehicle: saline with Tween-80 104 % of control | endpoint: mean survival time, dose: 200.0 mg/kg/injection, schedule: Q01DX001 (ip), vehicle: saline with Tween-80 106 % of control

CCOc1ccc2cc(S(=O)(=O)O)ccc2c1N
inactive: [11] 93 % of control | [12] 95 % of control | endpoint: mean survival time, dose: 400.0 mg/kg/injection, schedule: Q04DX003 (ip), vehicle: saline 103 % of control

Nc1ccn(C2CC(N)C(CO)O2)c(=O)n1 (centres undefined)
active: endpoint: median survival time, dose: 5.0 mg/kg/injection, schedule: Q06HX018 (ip), vehicle: water 150 % of control | endpoint: median survival time, dose: 10.0 mg/kg/injection, schedule: Q06HX018 (ip), vehicle: water 154 % of control and 162 % of control | endpoint: median survival time, dose: 20.0 mg/kg/injection, schedule: Q06HX018 (ip), vehicle: water 198 % of control and 200 % of control | endpoint: median survival time, dose: 40.0 mg/kg/injection, schedule: Q06HX018 (ip), vehicle: water 152 % of control and 174 % of control

CC(C)(C)C1=CC(C(C)(C)C)CCC1=O (centres undefined)
inactive: endpoint: mean survival time, dose: 100.0 mg/kg/injection, schedule: Q01DX009 (ip), vehicle: acetone 94 % of control | endpoint: mean survival time, dose: 200.0 mg/kg/injection, schedule: Q01DX009 (ip), vehicle: acetone 94 % of control

Fc1cc2cc3ccccc3cc2c2ccccc12
inactive: [13] 101 % of control | [14] 104 % of control | [15] 104 % of control

CC1(C)CC([NH-])(C(=O)O)CC(C)(C)N1O.CC1(C)CC([NH-])(C(=O)O)CC(C)(C)N1O.[Zn+2]
inactive: [5] 96 % of control | [6] 96 % of control | endpoint: mean survival time, dose: 50.0 mg/kg/injection, schedule: Q01DX009 (ip), vehicle: saline with Tween-80 96 % of control | [8] 93 % of control

NC(CS)=NC1CN2CCC1CC2 (centres undefined)
inactive: endpoint: mean survival time, dose: 50.0 mg/kg/injection, schedule: Q04DX002 (ip), vehicle: saline 115 % of control | endpoint: mean survival time, dose: 100.0 mg/kg/injection, schedule: Q04DX002 (ip), vehicle: saline 101 % of control

CN1CCC23CC=CCC2C1Cc1ccc([N+](=O)[O-])cc13 (centres undefined)
inactive: [4] 103 % of control | endpoint: mean survival time, dose: 12.5 mg/kg/injection, schedule: Q01DX001 (ip), vehicle: saline with Tween-80 105 % of control | endpoint: mean survival time, dose: 25.0 mg/kg/injection, schedule: Q01DX001 (ip), vehicle: saline with Tween-80 105 % of control

[N-]=[N+]=NCCCCCCCCCCN=[N+]=[N-]
inactive: [16] 98 % of control | [17] 101 % of control | endpoint: mean survival time, dose: 300.0 mg/kg/injection, schedule: Q01DX001 (ip), vehicle: saline 98 % of control

CS/C([S-])=N/N=C\c1ccccn1.CS/C([S-])=N/N=C\c1ccccn1.[Ni+2]
inactive: [1] 97 % of control | [2] 96 % of control | [3] 96 % of control

N#C/C(=C\c1ccc(-c2ccccc2)cc1)c1ccc(Cl)cc1
inactive: [2] 87 % of control

CC(C)CCCC(C)C1CCC2C3CC=C4CC(OC(=O)CCC(C)C)CC(O)C4(C)C3CCC12C (centres undefined)
inactive: [8] 96 % of control | [9] 94 % of control | [10] 94 % of control

CCCCC(=O)C(=O)OC(OC(=O)C(=O)CCCC)c1ccccc1
inactive: [16] 93 % of control | [17] 97 % of control

CC(NC1=C(Cl)C(=O)c2ccccc2C1=O)c1ccccc1 (centres undefined)
inactive: [7] 102 % of control | [18] 96 % of control | [1] 95 % of control

Cc1cc(C)c(CN)cc1CN
inactive: [7] 91 % of control | [18] 88 % of control | [1] 96 % of control

C[C@]12CC[C@H](O)C[C@@H]1CC[C@@H]1[C@@H]2C(=O)C[C@@]2(C)[C@H]1CC[C@]2(O)C(=O)CBr
inactive: endpoint: mean survival time, dose: 100.0 mg/kg/injection, schedule: Q01DX009 (sc), vehicle: steriod suspending solution 97 % of control | endpoint: mean survival time, dose: 100.0 mg/kg/injection, schedule: Q04DX003 (sc), vehicle: steriod suspending solution 97 % of control | endpoint: mean survival time, dose: 200.0 mg/kg/injection, schedule: Q01DX009 (sc), vehicle: steriod suspending solution 94 % of control | endpoint: mean survival time, dose: 200.0 mg/kg/injection, schedule: Q04DX003 (sc), vehicle: steriod suspending solution 95 % of control | endpoint: mean survival time, dose: 400.0 mg/kg/injection, schedule: Q01DX009 (sc), vehicle: steriod suspending solution 90 % of control | endpoint: mean survival time, dose: 400.0 mg/kg/injection, schedule: Q04DX003 (sc), vehicle: steriod suspending solution 95 % of control

CN=C(N)N/N=C(\C)c1ccc2c(c1)Cc1cc(/C(C)=N/NC(N)=NC)ccc1-2
inactive: endpoint: median survival time, dose: 0.37 mg/kg/injection, schedule: Q01DX009 (ip), vehicle: saline with Tween-80 118 % of control and 124 % of control | endpoint: median survival time, dose: 3.0 mg/kg/injection, schedule: Q01DX009 (ip), vehicle: saline with Tween-80 121 % of control | endpoint: median survival time, dose: 6.0 mg/kg/injection, schedule: Q01DX009 (ip), vehicle: saline with Tween-80 92 % of control and 95 % of control

C[Si](C)(C)c1c(F)c(F)c(F)c(F)c1F
inactive: [1] 96 % of control | [2] 94 % of control | [3] 88 % of control

Nc1ccc(N=Nc2ccc3nccc(N)c3c2)c(N)n1
inactive: [13] 119 % of control | [14] 119 % of control | [15] 119 % of control

CCCCNC(C)(C)C(SS)c1ccc(Cl)cc1 (centres undefined)
inactive: [11] 94 % of control | [12] 105 % of control

CC(CN(C)C)CN1c2ccccc2Sc2ccc(C(F)(F)F)cc21 (centres undefined)
inactive: endpoint: mean survival time, dose: 0.63 mg/kg/injection, schedule: Q04DX003 (ip), vehicle: saline 94 % of control | endpoint: mean survival time, dose: 1.25 mg/kg/injection, schedule: Q04DX003 (ip), vehicle: saline 96 % of control | endpoint: mean survival time, dose: 2.5 mg/kg/injection, schedule: Q04DX003 (ip), vehicle: saline 91 % of control | endpoint: mean survival time, dose: 6.25 mg/kg/injection, schedule: Q01DX009 (ip), vehicle: saline 91 % of control | endpoint: mean survival time, dose: 12.5 mg/kg/injection, schedule: Q01DX009 (ip), vehicle: saline 102 % of control

Cc1ccc(NC(=O)Nc2ccccc2C(N)=O)cc1
inactive: endpoint: mean survival time, dose: 100.0 mg/kg/injection, schedule: Q01DX009 (ip), vehicle: saline sonified 97 % of control | endpoint: mean survival time, dose: 200.0 mg/kg/injection, schedule: Q01DX009 (ip), vehicle: saline sonified 98 % of control | endpoint: mean survival time, dose: 400.0 mg/kg/injection, schedule: Q01DX009 (ip), vehicle: saline sonified 100 % of control

O=CNC(CSSCC(NC=O)C(=O)O)C(=O)O (centres undefined)
inactive: [8] 100 % of control | [9] 97 % of control | [10] 94 % of control

CCOC(=O)/C=C/C(=O)O.[Zn+2]
inactive: endpoint: mean survival time, dose: 3.12 mg/kg/injection, schedule: Q04DX003 (ip), vehicle: saline 100 % of control | endpoint: mean survival time, dose: 6.25 mg/kg/injection, schedule: Q04DX003 (ip), vehicle: saline 100 % of control | endpoint: mean survival time, dose: 12.5 mg/kg/injection, schedule: Q04DX003 (ip), vehicle: saline 100 % of control
